Experimental data as given in publication PMC7381740 (Theranostics, 2020).
Several values for one entry are separate records, joined by “and”; a condition that tells them apart may be missing. Identical values can stand only once.

Key:
Type in all cases: binding
S1R [1] = molecular target: T1, S1R (Rattus norvegicus, UniProt Q9R0C9); experiment: In vitro autoradiography, naive rat brain sections; settings: 2 nM tracer
Procedure: (§1) Sections of frontal (Brodmann areas 8/9) and temporal cortex (Brodmann areas 21/22) were cut from frozen human tissue blocks. Human and rodents sections were mounted on to glass slides (SuperFrost Plus Gold and SuperFrost Plus slides, Thermo Fisher Scientific Inc., MA, USA for human and animal tissues, respectively). For all steps described below, Tris buffer (Trizma pre-set crystals (Sigma, UK), 50 mM, with 120 mM NaCl, with pH adjusted to 7.4 at 4 °C or room temperature) was used. Slides were allowed to defrost then pre-incubated in Tris Buffer at 4 °C for 5min. […] Adjacent sections were incubated with the same solution containing an excess of unlabelled IAM6067 (2 µM) to assess non-specific binding. Next the slides were washed 2 × 2 min in Tris buffer at 4 °C, followed by a quick rinsing in distilled water at 4 °C. Slides were then dried promptly before exposition on Phosphor-Imager plates overnight. Autoradiographs were analysed using AIDA software (Raytest GmbH, Germany). […] Specific binding (total binding minus non-specific binding) in each ROI is expressed as intensity of the photostimulated luminescence (PSL) per pixel.

S1R [2] = molecular target: T1, S1R; experiment: Autoradiography in AMPA-injected rat brain sections; settings: striatum (caudate-putamen + globus pallidus), AMPA rats
Procedure: Animals were maintained normothermic (body temperature: 37.0 ± 0.4 °C) during the surgery through the use of a heating blanket (Homeothermic Blanket Control Unit, Harvard Apparatus Limited®, Edenbridge, Kent, UK). Twenty-four hours later, the rats were anesthetized again as described above and scanned with a 3T cryogen-free MRS 3000 scanner with a quadrature, rat head coil (MR Solutions, Guildford, UK), [35] to assess oedema (i.e. lesion size and location) immediately before the PET scan. Parameters for the T2-weighted RARE sequence were: repetition time = 4800 ms, base echo time = 17 ms, effective echo time = 68 ms, number of echoes = 8, bandwidth = 20 kHz, number of samples = 256, number of views = 240, number of averages = 1 with 25 slices of 1.06 mm, giving a final voxel size of 0.136 × 0.136 × 1.06 mm.
Sections of frontal (Brodmann areas 8/9) and temporal cortex (Brodmann areas 21/22) were cut from frozen human tissue blocks. […] Autoradiographs were analysed using AIDA software (Raytest GmbH, Germany). […] Specific binding (total binding minus non-specific binding) in each ROI is expressed as intensity of the photostimulated luminescence (PSL) per pixel.
Specific binding in the ipsi- and contralateral striatum in the rat AMPA model was analysed with a paired t-test.

S1R [3] = molecular target: T2, S1R (Homo sapiens, UniProt Q99720); experiment: Autoradiography in post-mortem human cortex (controls, subclinical AD, AD)
T2 construct: Post-mortem brain tissues of 23 cases (8 men and 15 women) were obtained from the Manchester Brain Bank; from tissue; host or cells: post-mortem human frontal and temporal cortex (Manchester Brain Bank)
T2 sequence (Q99720 whole entry): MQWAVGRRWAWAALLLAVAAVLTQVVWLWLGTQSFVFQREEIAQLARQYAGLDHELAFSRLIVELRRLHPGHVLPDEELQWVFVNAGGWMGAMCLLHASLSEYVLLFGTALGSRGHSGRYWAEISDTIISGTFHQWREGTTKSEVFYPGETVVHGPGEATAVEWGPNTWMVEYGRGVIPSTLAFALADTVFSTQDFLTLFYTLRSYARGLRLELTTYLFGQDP
From the text: Post-mortem brain tissues of 23 cases (8 men and 15 women) were obtained from the Manchester Brain Bank through appropriate consenting procedures for collection and use of the human brain tissues. Pathological diagnoses were made by an experienced neuropathologist (DM) as previously described, [48] and were in accordance with recent National Institute on Ageing - Alzheimer's Association guidelines for the neuropathological assessment of AD [49]. By such classification, only cases with Braak stages 5 and 6 were classed as definite AD. Cases with Braak Stages >2 & ≤4 were not diagnosed as definite AD, but these could be considered as cases of possible (incipient) AD, thereby representing cases with early changes of AD. Amyloid plaque load per se was not employed for classification of AD, although it is acknowledged that neuritic plaque scores do form the basis of CERAD classification. Clearly, in terms of amyloid plaques alone, there was overlap in amyloid load between cases at Braak stage >2 & ≤4 and those at Braak stages 5 and 6. Subjects were therefore split in three groups based on their Braak stages: controls (Braak ≤2, 8 subjects), subclinical AD (Braak >2 & ≤4, 8 subjects) and AD (Braak >4, 7 subjects). Details of each case are described in Table 1. […] These were obtained from aged patients with no history of neurological disease and no pathological evidence of AD or other degenerative brain disease. […] The average post-mortem delay was also similar for all groups (mean ± SD [min.-max.]: 34.9 ± 11.3 [12]-[46]; 35.8 ± 9.9 [25]-[48] and 41.5 ± 14.2 [24]-[64] hours for controls, subclinical AD and AD groups, respectively). Subsequently to the autoradiography experiments, measurements from frontal cortex of case #3 were not included as the sections had been damaged during the experiments (Table 1).
as §1
Specific binding for human autoradiography across the three groups in both frontal and temporal cortex and for grey and white matter was analysed by mixed-model fitting (brain structures as repeated factor). As this analysis only returned an effect for the brain structures factor and not for the Braak stage, a Sidak's post-hoc test comparing brain regions only was performed.

T1 sequence (Q9R0C9 whole entry): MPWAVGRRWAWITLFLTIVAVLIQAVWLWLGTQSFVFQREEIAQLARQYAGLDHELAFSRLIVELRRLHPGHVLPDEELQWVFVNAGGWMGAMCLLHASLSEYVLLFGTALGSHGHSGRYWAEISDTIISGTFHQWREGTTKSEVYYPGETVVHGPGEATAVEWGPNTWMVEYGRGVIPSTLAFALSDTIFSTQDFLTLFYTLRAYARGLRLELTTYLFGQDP

## FCCOc1ccc(CN2CCN(Cc3cc4ccccc4o3)CC2)cc1 [^18F-IAM6067, N-(2-Benzofuranylmethyl)-N'-[4-(2-fluoroethoxy)benzyl]piperazine]
S1R [1]; cingulate cortex
  specific binding: 4.96 ± 0.26 PSL/pixel
S1R [1]; hypothalamus
  specific binding: 6.79 ± 0.95 PSL/pixel
S1R [1]; pons
  specific binding: 7.24 ± 0.89 PSL/pixel
S1R [1]; somatosensory cortex
  specific binding: 4.49 ± 0.51 PSL/pixel
S1R [1]; striatum
  specific binding: 4.56 ± 0.42 PSL/pixel
S1R [2]
  change in ^18F-IAM6067 specific binding, ipsi- vs contralateral: -38 ± 8% and -38%
S1R [3]; human frontal grey matter, AD (Braak >4)
  specific binding: 3.27 ± 0.90 PSL/pixel
S1R [3]; human frontal grey matter, controls (Braak ≤2)
  specific binding: 2.37 ± 1.09 PSL/pixel
S1R [3]; human frontal grey matter, subclinical AD (Braak >2 & ≤4)
  specific binding: 3.11 ± 0.84 PSL/pixel
S1R [3]; human temporal grey matter, AD (Braak >4)
  specific binding: 2.91 ± 1.20 PSL/pixel
S1R [3]; human temporal grey matter, controls (Braak ≤2)
  specific binding: 2.56 ± 1.24 PSL/pixel
S1R [3]; human temporal grey matter, subclinical AD (Braak >2 & ≤4)
  specific binding: 2.98 ± 1.15 PSL/pixel
